US9580463B2 (BRISTOL-MYERS SQUIBB COMPANY, priority 2013, dated 2017)
Where two headings read alike, the source gives them in different places.

Columns and labels:
[1] = system: HCV genotype 1a (H77 strain) replicon in HUH-7 cells; assay: HCV replicon luciferase reporter assay, genotype 1a; format: cell-based; conditions: Hepatitis C virus, 72 h, genotype 1a replicon, 3 days incubation
Text: An HCV replicon whole cell system was established as described by Lohmann V, Korner F, Koch J, Herian U, Theilmann L, Bartenschlager R., Science 285(5424):110-3 (1999) and modified to introduce a luciferase reporter, as first described by Krieger et al (Krieger N, Lohmann V, and Bartenschlager R, J. Virol. 75(10):4614-4624 (2001)). CDNA encoding a humanized form of the Renilla luciferase gene and a linker sequence fused directly to the 3′-end of the luciferase gene were introduced into the replicon construct using an Asc1 restriction site located in core, directly upstream of the neomycin marker gene. The adaptive mutation at position 1179 (serine to isoleucine) was also introduced (Blight K J, Kolykhalov, A A, Rice, C M, Science 290(5498):1972-1974). A stable cell line constitutively expressing this HCV replicon construct was generated by first linearizing plasmid DNAs with ScaI. RNA transcripts were synthesized in vitro using the T7 MegaScript transcription kit (Ambion, Austin, Tex.) according to manufacturer's directions. In vitro transcripts of the cDNA were transfected into the human hepatoma cell line, HUH-7. […] Resulting cell lines were characterized for positive and negative strand RNA production and protein production over time.
A stable HCV replicon luciferase reporter cell line representing the genotype 1a H77 strain (Yanagi M, Purcell R H, Emerson S U, et al. Transcripts from a single full-length cDNA clone of hepatitis C virus are infectious when directly transfected into the liver of a chimpanzee. Proc Natl Acad Sci USA 1997; 94(16):8738-8743) was generated as described previously for the genotype 1b (Con1) replicon luciferase cell line. The replicon construct was modified by introducing mutations were introduced into the genes encoding the NS3 helicase domain (proline replaced by leucine at position 1496) and NS5A (serine to isoleucine at position 2204) to improve replication in cell culture.
HCV replicon luciferase assays were developed to monitor the inhibitory effects of compounds described in the disclosure on HCV genotypes 1a and 1b viral replication. HUH-7 cells, constitutively expressing the HCV replicon, were grown in Dulbecco's Modified Eagle Media (DMEM) (Gibco-BRL) containing 10% Fetal calf serum (FCS) (Sigma) and 1 mg/mL G418 (Gibco-BRL). Compounds were serially diluted 3 folds in DMSO for a twenty-point titration and subsequently transferred to sterile 384-well tissue-culture treated plates (Corning cat #3571). The plates were then seeded with 50 μL of cells at a density of 3.0×10^3 cells/well in DMEM containing 4% FCS (final DMSO concentration at 0.5%). After 3 days incubation at 37° C., cells were analyzed for Renilla Luciferase activity using the EnduRen as substrate (Promega cat #E6485). The EnduRen substrate was diluted in DMEM and then added to the plates to a final concentration of 7.5 μM. The plates were incubated for 2 hrs at 37° C. and then read immediately for 30 seconds with Viewlux Imager (PerkinElmer) using a luminescence program. To assess cytotoxicity of compounds, CC50 values were generated by multiplexing the EnduRen-containing plates with Cell Titer-Blue (Promega, cat # G8082). Cell-Titer Blue (3 μL) was added to each well and incubated for 8 hrs at 37° C. The fluorescence signal from each well was read, with an excitation wavelength at 525/10 nm and an emission wavelength of 598/10 nm, using the Viewlux Imager.
The EC50 values for compounds were calculated by using a four-parameter logistic equation: y=A+((B−A)/(1+((C/x)^D))), where A and B denotes minimal and maximal % inhibition, respectively, C is the EC50, D is the hill slope and x represents compound concentration.

[2] = system: HCV genotype 1b (Con1) replicon in HUH-7 cells; assay: HCV replicon luciferase reporter assay, genotype 1b; format: cell-based; conditions: Hepatitis C virus, 72 h, genotype 1b replicon, 3 days incubation
In short: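 Twenty-point, threefold compound titrations (0.5% DMSO) were incubated 3 days at 37 °C with 3.0×10^3 HUH-7 cells/well in 4% FCS. The cells stably carried luciferase replicons: genotype 1b Con1 (S1179I) or 1a H77 (NS3 P1496L, NS5A S2204I). Renilla signal was read after 2 h with 7.5 μM EnduRen, and EC50 was taken from a four-parameter logistic fit. Cytotoxicity (CC50) was measured by Cell Titer-Blue, 8 h.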

| SMILES | EC50 ([1]; read-out: LE_1a (EC50)) | EC50 ([1]; read-out: LE_1a (EC50, range)) | EC50 ([2]; read-out: LE_1b (EC50)) | EC50 ([2]; read-out: LE_1b (EC50, range)) |
| --- | --- | --- | --- | --- |
| COC[C@@H]1C[C@H](C)CC/C=C\[C@@H]2C[C@@]2(C(=O)NS(=O)(=O)C2(C)CC2)NC(=O)[C@@H]2C[C@@H](Oc3ncc(OC)c4ccccc34)CN2C(=O)[C@H]1NC(=O)OC(C)(C)C(F)(F)F [Compound 1016, 1,1,1-trifluoro-2-methylpropan-2-yl ((2R,6S,7R,9R,13aS,14aR,16aS,Z)-2-((4-methoxyisoquinolin-1-yl)oxy)-7-(methoxymethyl)-9-methyl-14a-(((1-methylcyclopropyl)sulfonyl)carbamoyl)-5,16-dioxo-1,2,3,5,6,7,8,9,10,11,13a,14,14a,15,16,16a-hexadecahydrocyclopropa[e]pyrrolo[1,2-a][1,4]diazacyclopentadecin-6-yl)carbamate] | 0.84 nM | 0.51 to 1 nM | 0.26 nM | 0.1 to 0.5 nM |
| COC[C@@H]1C[C@@H](C)CC/C=C\[C@@H]2C[C@@]2(C(=O)NS(=O)(=O)C2(C)CC2)NC(=O)[C@@H]2C[C@@H](Oc3ncc(OC)c4ccccc34)CN2C(=O)[C@H]1NC(=O)OC(C)(C)C(F)(F)F [Compound 1017, 1,1,1-trifluoro-2-methylpropan-2-yl ((2R,6S,7R,9S,13aS,14aR,16aS,Z)-2-((4-methoxyisoquinolin-1-yl)oxy)-7-(methoxymethyl)-9-methyl-14a-(((1-methylcyclopropyl)sulfonyl)carbamoyl)-5,16-dioxo-1,2,3,5,6,7,8,9,10,11,13a,14,14a,15,16,16a-hexadecahydrocyclopropa[e]pyrrolo[1,2-a][1,4]diazacyclopentadecin-6-yl)carbamate] |  | 1.01 to 5 nM |  | 0.51 to 1 nM |
| COC[C@@H]1C[C@@H](C)CC/C=C\[C@@H]2C[C@@]2(C(=O)NS(=O)(=O)C2CC2)NC(=O)[C@@H]2C[C@@H](Oc3nccc4cc(OC)ccc34)CN2C(=O)[C@H]1NC(=O)OC(C)(C)C(F)(F)F [Compound 1018, 1,1,1-trifluoro-2-methylpropan-2-yl ((2R,6S,7R,9S,13aS,14aR,16aS,Z)-14a-((cyclopropylsulfonyl)carbamoyl)-2-((6-methoxyisoquinolin-1-yl)oxy)-7-(methoxymethyl)-9-methyl-5,16-dioxo-1,2,3,5,6,7,8,9,10,11,13a,14,14a,15,16,16a-hexadecahydrocyclopropa[e]pyrrolo[1,2-a][1,4]diazacyclopentadecin-6-yl)carbamate] |  | 1.01 to 5 nM |  | 1.01 to 5 nM |
| COC[C@@H]1C[C@H](C)CC/C=C\[C@@H]2C[C@@]2(C(=O)NS(=O)(=O)C2CC2)NC(=O)[C@@H]2C[C@@H](Oc3nccc4cc(OC)ccc34)CN2C(=O)[C@H]1NC(=O)OC(C)(C)C(F)(F)F [Compound 1019, 1,1,1-trifluoro-2-methylpropan-2-yl ((2R,6S,7R,9R,13aS,14aR,16aS,Z)-14a-((cyclopropylsulfonyl)carbamoyl)-2-((6-methoxyisoquinolin-1-yl)oxy)-7-(methoxymethyl)-9-methyl-5,16-dioxo-1,2,3,5,6,7,8,9,10,11,13a,14,14a,15,16,16a-hexadecahydrocyclopropa[e]pyrrolo[1,2-a][1,4]diazacyclopentadecin-6-yl)carbamate] |  | 1.01 to 5 nM |  | 0.51 to 1 nM |
| COC[C@@H]1CCCC/C=C\[C@@H]2C[C@@]2(C(=O)NS(=O)(=O)C2CC2)NC(=O)[C@@H]2C[C@@H](Oc3nc4cc(OC)ccc4nc3C(F)(F)F)CN2C(=O)[C@H]1NC(=O)OC(C)(C)C [Compound 1020, tert-butyl ((2R,6S,7R,13aS,14aR,16aS,Z)-14a-((cyclopropylsulfonyl)carbamoyl)-2-((7-methoxy-3-(trifluoromethyl)quinoxalin-2-yl)oxy)-7-(methoxymethyl)-5,16-dioxo-1,2,3,5,6,7,8,9,10,11,13a,14,14a,15,16,16a-hexadecahydrocyclopropa[e]pyrrolo[1,2-a][1,4]diazacyclopentadecin-6-yl)carbamate] |  | 1.01 to 5 nM |  | 0.51 to 1 nM |
| COC[C@@H]1CCCC/C=C\[C@@H]2C[C@@]2(C(=O)NS(=O)(=O)C2CC2)NC(=O)[C@@H]2C[C@@H](Oc3nc4cc(OC)ccc4nc3C(F)(F)F)CN2C(=O)[C@H]1NC(=O)OC(C)(C)C(F)(F)F [Compound 1021, 1,1,1-trifluoro-2-methylpropan-2-yl ((2R,6S,7R,13aS,14aR,16aS,Z)-14a-((cyclopropylsulfonyl)carbamoyl)-2-((7-methoxy-3-(trifluoromethyl)quinoxalin-2-yl)oxy)-7-(methoxymethyl)-5,16-dioxo-1,2,3,5,6,7,8,9,10,11,13a,14,14a,15,16,16a-hexadecahydrocyclopropa[e]pyrrolo[1,2-a][1,4]diazacyclopentadecin-6-yl)carbamate] |  | 1.01 to 5 nM |  | 0.1 to 0.5 nM |
| COC[C@@H]1CCCC/C=C\[C@@H]2C[C@@]2(C(=O)NS(=O)(=O)C2CC2)NC(=O)[C@@H]2C[C@@H](Oc3nccc4cc(OC)c(F)cc34)CN2C(=O)[C@H]1NC(=O)OC(C)(C)C [Compound 1022] |  | 1.01 to 5 nM |  | 1.01 to 5 nM |
| COC[C@@H]1CCCC/C=C\[C@@H]2C[C@@]2(C(=O)NS(=O)(=O)C2CC2)NC(=O)[C@@H]2C[C@@H](Oc3nccc4cc(OC)c(F)cc34)CN2C(=O)[C@H]1NC(=O)OC(C)(C)C(F)(F)F [Compound 1023] |  | 1.01 to 5 nM |  | 0.1 to 0.5 nM |
| COC[C@@H]1C[C@@H](C)CC/C=C\[C@@H]2C[C@@]2(C(=O)NS(=O)(=O)C2(CF)CC2)NC(=O)[C@@H]2C[C@@H](Oc3nc4cc(OC)ccc4nc3C(C)C)CN2C(=O)[C@H]1NC(=O)OC(C)(C)C [Compound 1024, tert-butyl ((2R,6S,7R,9S,13aS,14aR,16aS,Z)-14a-(((1-(fluoromethyl)cyclopropyl)sulfonyl)carbamoyl)-2-((3-isopropyl-7-methoxyquinoxalin-2-yl)oxy)-7-(methoxymethyl)-9-methyl-5,16-dioxo-1,2,3,5,6,7,8,9,10,11,13a,14,14a,15,16,16a-hexadecahydrocyclopropa[e]pyrrolo[1,2-a][1,4]diazacyclopentadecin-6-yl)carbamate] |  | 35 to 620 nM |  | 5.01 to 35 nM |
| COC[C@@H]1C[C@H](C)CC/C=C\[C@@H]2C[C@@]2(C(=O)NS(=O)(=O)C2(CF)CC2)NC(=O)[C@@H]2C[C@@H](Oc3nc4cc(OC)ccc4nc3C(C)C)CN2C(=O)[C@H]1NC(=O)OC(C)(C)C [Compound 1025, tert-butyl ((2R,6S,7R,9R,13aS,14aR,16aS,Z)-14a-(((1-(fluoromethyl)cyclopropyl)sulfonyl)carbamoyl)-2-((3-isopropyl-7-methoxyquinoxalin-2-yl)oxy)-7-(methoxymethyl)-9-methyl-5,16-dioxo-1,2,3,5,6,7,8,9,10,11,13a,14,14a,15,16,16a-hexadecahydrocyclopropa[e]pyrrolo[1,2-a][1,4]diazacyclopentadecin-6-yl)carbamate] | 7.01 nM | 5.01 to 35 nM | 1.38 nM | 1.01 to 5 nM |
